The test system of assay [1] is 27-mer adenosine aptamer (DNA, aptamer) ACCTGGGGGAGTATTGCGGAGGAAGGT
Description: CNT FET aptasensor, Hill-Langmuir fit. Conditions: no added salt stated; 2 mM Tris-HCl, pH 7.4; Hill n 0.6 ± 0.08; immobilised aptamer.

For assay [2], the system named is 35-mer adenosine aptamer (DNA, aptamer) AAAAAAAAAACCTGGGGGAGTATTGCGGAGGAAGG
The assay is described as follows: CNT FET aptasensor, Hill-Langmuir fit. The settings on record: no added salt stated; 2 mM Tris-HCl, pH 7.4; Hill n 0.2 ± 0.03; immobilised aptamer.

Results on one molecule are retold here after paper PMC8468449 (2021).

Regarding `Nc1ncnc2c1ncn2[C@@H]1O[C@H](CO)[C@@H](O)[C@H]1O`, the Kd entry is given as “(1.6 ± 1.4) × 10^−7 M” in assay [1] and “(1.2 ± 1.08) × 10^−9 M” in assay [2].
